# Assay results as given in US11197885B2, “Collagen enhancing agent made from low acyl gellan gum, methods of making and methods of using the same” (The University of Toledo, priority 2015, dated 2021).
# Experiments:
# Assay type in all cases: cell-based
# [1] = test system: phosphorylated CREB in mouse embryonic cortical neurons; experiment: nuclear p-CREB immunostaining in embryonic cortical neurons (Example 2); settings: 1 μM, 24 h
# Description: Differentiated PC12 cells and mouse embryonic cortical neurons (E17, DIV14) were treated with mock, dextran, alginate, HA-GAGR, or midi-GAGR (1 μM) for 24 h and fixed in 3.7% paraformaldehyde. The fixed cells and neurons were immunostained with antibodies against α-tubulin and phosopho-CREB (p-CREB) along with DAPI (nucleus).
# [2] = test system: mouse cortical neurons (E17, DIV5); experiment: LIVE/DEAD assay, pre-treatment of mouse cortical neurons before 4HNE, H2O2 or Aβ42; settings: pre-treatment 24 h (same concentrations)
# Source text: The protective effect of polysaccharides on primary cortical neurons from 4HNE, H2O2, and Aβ42 peptide (Sigma) was examined using LIVE/DEAD® Viability/Cytotoxicity Assay Kit (Life Technologies). Female pregnant mice (BALB/C, E17, Charles River Laboratories International, Inc.) or female pregnant SD rats (E17, bred in house) were anesthetized and dissected to obtain 8-9 embryos per animal. Cortical neurons were isolated from embryonic brains and differentiated on poly-L-lysine-coated coverslips in B27/neurobasal medium. For drug treatment before free radical treatment, mouse cortical neurons (5 days in vitro [DIV5]) were treated with vehicle (H2O), 1 μM of 5 kD dextran (Sigma), alginate (Sigma), midi-GAGR, 0.01 μM of high acyl gellan gum (HA-GAGR, CPKelco Co.), or 0.1 μM of LA-GAGR for 24 h and then treated with 10 μM 4HNE or 50 μM H2O2 for 24 h, or 2 μM Aβ42 peptide for 48 h prior to viability/cytotoxicity assay. For drug co-treatment with free radicals, rat cortical neurons (DIV5) were treated with 1 μM of dextran, alginate, or midi-GAGR, 0.01 μM of HA-GAGR, or 0.1 μM of LA-GAGR along with either 10 μM 4HNE (24 h) or 2 μM Aβ42 peptide (48 h). To examine the extent to which midi-GAGR-mediated neuroprotection depends on FGFR1, rat cortical neurons (E17, DIV5) were pre-treated with 4 μM SU5402 (Sigma) for 6 h and treated with 10 μM 4HNE and either vehicle or 1 μM midi-GAGR for 24 h prior to cell viability/cytotoxicity assay. As controls, neurons were treated with SU5402, midi-GAGR, 4HNE, 4HNE plus midi-GAGR, or SU5402 plus midi-GAGR.
# For cell viability/cytotoxicity measurement, neurons on glass coverslips were incubated in 1×PBS containing 2 μM calcein AM (live cells: green) and 4 μM ethidium homodimer-1 (dead cells: red) for 10 min at 37° C. Immediately thereafter, neurons were imaged by 10×objective using a fluorescence Olympus IX71 microscope (Olympus America Inc., Center Valley, Pa.) and, for the acquisition of high-quality images, using TCS SP5 multi-photon laser scanning confocal microscope.
# Midi-GAGR attenuated neurite atrophy caused by free reactive radicals. It is now shown herein that midi-GAGR protect neurons from the death caused by free radical insults. The extent to which midi-GAGR protects the primary culture of rodent cortical neurons from 4HNE and H2O2 was determined. In addition to the radicals, amyloid β peptide (Aβ42) was also tested. Aβ42 peptide is a major causative factor that causes oxidative stress and neuron death. Mouse cortical neurons (E17, DIV5) were treated with 10 μM 4HNE (24 h), 50 μM H2O2 (24 h), or 2 μM Aβ42 peptide (48 h) after the treatment of the neurons with vehicle (H2O), midi-GAGR (1 μM), dextran (1 μM), alginate (1 μM), LA-GAGR (0.1 μM), or HA-GAGR (0.01 μM) for 24 h. The concentrations of 4HNE, H2O2, and Aβ42 peptide were chosen according to their patho-physiological concentrations. The concentrations of LA-GAGR and HA-GAGR were chosen because, within the same volume, the total numbers of sugar units in the polysaccharides at the concentrations are close to that of 1 μM midi-GAGR. The viability of neurons was assessed using LIVE/DEAD® Viability/Cytotoxicity Assay Kit in which membrane-permeant calcein AM is cleaved by esterase in live cells, thus yielding green fluorescence, and membrane-impermeant ethidium homodimer-1 stains the nucleic acids of plasma membrane-compromised cells with red fluorescence. The numbers of green (live) and red (dead) neurons in each condition were counted using Metamorph. Although the intensities of green fluorescent signals in neurons treated with either free radicals or Aβ42 peptide were weak, the neurons were included in the counting. About 8-9% of vehicle-treated neurons died during the process of live/dead cell assay (FIGS. 23A-23F, FIGS. 24A-24C).
# [3] = test system: differentiated dopaminergic PC12 cells exposed to 30 μM 6-OHDA; experiment: LIVE/DEAD viability of differentiated PC12 cells exposed to 6-OHDA; settings: 1 μM for 6 h, then 30 μM 6-OHDA for 24 h
# Description: Differentiated dopaminergic PC12 cells and primary mouse embryonic cortical neurons (E17, DIV14) were treated with mock (H2O) or 1 μM of dextran, alginate, HA-GAGR, or midi-GAGR for 6 h and insulated by oxidative stressors (30 μM 6-OHDA [PC12] and 10 μM amyloid β peptide [cortical neurons]) for 24 h.
substance,measurement,setting,value
dextran,increase in levels of nuclear p-CREB,[1],not significantly increased
same,percent of neuron death,[2]; then 2 μM Aβ42 peptide 48 h,did not decrease
same,percent of neuron death,[2]; then 50 μM H2O2 24 h,did not reduce
same,6-OHDA-induced cell death,[3],did not
